Measured values: patent publication US20030045582A1, “Method for treating hyperglycemia” (Alteon, Inc., priority 2000, published 2003)

Assays:
diabetic rats = details: cited from earlier work
[1] = test system: patients suffering from Type I diabetes with overt diabetic nephropathy; assay: Multicenter, randomized, double-blind, placebo-controlled study: time to doubling of baseline serum creatinine; assay type: in vivo, human
Procedure: (§1) Renal function was measured every three months using serum creatinine levels, and creatinine clearance rates. In addition, the glomerular filtration rate was measured at entry and every six months. Study participants were treated at one of two dosage levels, (150 mg and 300 mg B.I.D.).
Time to doubling of baseline serum creatinine was measured. Study participants were also treated with standard measures for blood pressure control, and diabetes management, including insulin treatment, diet, and exercise. Serum creatinine levels were made at baseline and randomization visits, at the end of weeks 1-6, the end of month 2, the end of month 3, and then every 3 months for the remainder of the study. “Baseline serum creatinine” was the mean of the levels at the baseline and randomization visits. If the level at any subsequent visit was at least two times the baseline, and was confirmed by a second measurement, the patient was considered to have experienced a doubling of baseline serum creatinine. Serum creatinine levels were determined by a clinical laboratory (SciCor Inc., 8211 SciCor Drive, Indianapolis, Ind. 46214-2985).

[2] = test system: streptozotocin-diabetic rat; details: streptozotocin-diabetic rat model; cited from earlier work
kidney = details: in vivo; cited from earlier work
[3] = test system: red blood cell (RBC) deformability; details: in vivo; cited from earlier work
[4] = test system: patients suffering from Type I diabetes with overt diabetic nephropathy; assay: Same clinical study: 24 hour urinary protein excretion; assay type: in vivo, human
Procedure: as §1
(FIG. 1). The reduction was generally first observed at the first post-randomization evaluation (at three months) and increased in magnitude over the duration of the study. […] (FIG. 2).

[5] = test system: patients suffering from Type I diabetes with overt diabetic nephropathy; assay: Same clinical study: progression of diabetic retinopathy, three or more steps in ETDRS scale; assay type: in vivo, human

Structure (SMILES): N=C(N)NN [Pimagedine, aminoguanidine]
- Aortic wall protein cross-linking (diabetic rats): diminishes
- Patients with adjudicated doubling of serum creatinine (%) ([1]; Baseline serum creatinine less than 1.5 mg/dL, Combined): (10%)
- Odds ratio, doubling of serum creatinine ([1]; Baseline serum creatinine less than 1.5 mg/dL, Combined versus placebo): 0.59
- Patients with adjudicated doubling of serum creatinine (%) ([1]; Baseline serum creatinine less than 1.5 mg/dL, High Dose): (10%)
- Odds ratio, doubling of serum creatinine ([1]; Baseline serum creatinine less than 1.5 mg/dL, High Dose versus placebo): 0.52
- Patients with adjudicated doubling of serum creatinine (%) ([1]; Baseline serum creatinine less than 1.5 mg/dL, Low Dose): (11%)
- Odds ratio, doubling of serum creatinine ([1]; Baseline serum creatinine less than 1.5 mg/dL, Low Dose versus placebo): 0.64
- Patients with adjudicated doubling of serum creatinine (%) ([1]; Combined doses): (20%)
- Odds ratio, doubling of serum creatinine ([1]; Combined versus placebo): 0.73
- Patients with adjudicated doubling of serum creatinine (%) ([1]; High Dose (300 mg B.I.D.), listed as pimagendine): 20%
- Odds ratio, doubling of serum creatinine ([1]; High Dose versus placebo): 0.73
- Patients with adjudicated doubling of serum creatinine (%) ([1]; Low Dose (150 mg B.I.D.)): (20%)
- Patients with adjudicated doubling of serum creatinine (%) ([1]; Low Dose (150 mg B.I.D.), listed as pimagendine): 20%
- Odds ratio, doubling of serum creatinine ([1]; Low Dose versus placebo): 0.72
- Reduction in the risk of doubling serum creatinine ([1]; all patients, versus placebo): 29%
- Patients with adjudicated doubling of serum creatinine (%) ([1]; high dose (300 mg B.I.D.)): (20%)
- Reduction of the risk of doubling serum creatinine ([1]; patients with a baseline serum creatinine of less than 1.5 mg/dL): 63%
- Increased glomerular basement membrane thickness [2]: prevented
- Immunoglobulin trapping in the kidney (kidney): reduction
- Diabetes-induced changes in the deformability of red blood cells [3]: prevent
- 24 hour urinary protein excretion ([4]; high dose (300 mg B.I.D.)): statistically significant reductions
- 24 hour urinary protein excretion ([4]; low dose (150 mg B.I.D.)): statistically significant reductions
- Effect on proteinuria ([4]; patients with a baseline serum creatinine of less than 1.5 mg/dL compared with whole population): greater effect
- % of patients with a ≧ 3 step progression in ETDRS score ([5]; Combined): (10%)
- Logistic regression model odds ratio, ≧ 3 step retinopathy progression ([5]; Combined versus placebo): 0.53
- % of patients with a ≧ 3 step progression in ETDRS score ([5]; High Dose): (8%)
- Logistic regression model odds ratio, ≧ 3 step retinopathy progression ([5]; High Dose versus placebo): 0.68
- % of patients with a ≧ 3 step progression in ETDRS score ([5]; Low Dose): (11%)
- Logistic regression model odds ratio, ≧ 3 step retinopathy progression ([5]; Low Dose versus placebo): 0.58
- Incidence of progression of retinopathy from baseline to endpoint ([5]; progression of three or more steps in ETDRS scale): decreased
